Series [1] can be described thus: Dynamic dissolution profile, USP Apparatus 2, simulated gastric media then FaSSIF-V2. Type of series: physicochemical. Particulars: 37° C., 30 min 0.1N HCl (1 mg/mL) then 180 min FaSSIF-V2 (0.5 mg/mL).
Experimental: The dissolution profile was determined in a USP Apparatus 2 type (Distek 2100 C Dissolution Apparatus) at 37° C. The dynamic dissolution test includes first a 30 minutes dissolution in simulated gastric media (0.1N HCl) to achieve a concentration equivalent to a concentration of compound of formula (I) of 1 mg/mL, followed by a 180 minutes dissolution in FaSSIF-V2 to achieve a concentration equivalent to a concentration of compound of formula (I) of 0.5 mg/mL.
Then, 50 mL of simulated gastric media (0.1N HCl) was added to the vessel and the paddle speed was fixed at 100 rpm. After 30 minutes, an equivalent volume (50 mL) of fasted state biorelevant media was added to the vessel to obtain the composition of FaSSIF-V2. Dissolution was carried out in triplicate (n=3). At each timepoint, the suspension was filtered through a 0.45-μm ultra free filter (Merck Millipore) and the content of compound of formula (I) was determined by HPLC. The filtrate was then diluted with a suitable organic solvent.
A short description of series [2]: Shake flask solubility (24 h) in buffer/biorelevant media. Type of series: physicochemical. Particulars: thermodynamic from solid, n=3, read-out: Solubility Measurements (24 h). The protocol:
The respective solubility of compounds of formula (Ia) and ASD1 was determined in different media while using the shake flask method. An excess of solid (equivalent to a concentration of compound of formula (I) of 5 mg/mL) was suspended in 5 mL of buffer/biorelevant media as specifically described in Table 4 and incubated in a sealed glass vial (10 mL) for 24 h at both RT and 37° C. in a climatic chamber equipped with a rotary mixer. The 24h time point was assumed to have reached solubility, at which time the suspension was filtered through a 0.45-μm ultra free filter (Merck Millipore) and the drug content was determined by HPLC. The solubility of compound (Ia) and ASD1 was determined in triplicate (n=3). Where required to prevent drug precipitation, the filtrate was diluted with a suitable organic solvent. […] These media are respectively a phosphate buffer, FasSGF, FASSIF-V2 and FeSSIF-V2. FasSG is fasted condition gastric fluid. FasSGF is prepared at pH 1.6 and contains 0.08 mM Taurocholate, 0.02 mM phospholipids, 34 mM sodium and 59 mM chloride. FaSSIF-V2 and FeSSIF-V2 are Fasted and Fed State Biorelevant Media, respectively. FaSSIF-V2 is prepared at pH 6.5 and contains 3 mM Taurocholate, 0.2 mM Phospholipids, 106 mM Sodium, 69 mM Chloride and 19 mM Maleic acid. FeSSIF-V2 is prepared at pH 5.8 and contains 10 mM Taurocholate, 2 mM Phospholipids, 0.8 mM Oleate, 5 mM Glycerol monoleate, 218 mM Sodium, 125 mM Chloride and 55 mM Maleic acid.

Converted amounts (≈) assume the structure as drawn. Like-named read-outs stand apart in the source and are kept apart here. A value given as a limit tells only on which side of the number the result lay.

This is an account of results in patent US20240000769A1, “AMORPHOUS SOLID DISPERSIONS” (UCB Biopharma SRL, priority 2020, published 2024).

A word on the solubility: it is the dissolved amount per volume that the medium holds. Regarding `C[C@H]1c2cccc(C(C)(C)O)c2C[C@H](CO)N1C(=O)Cc1c(Cl)ccc2c1c(Cl)nn2C` [Compound (Ia), 2-(3,5-dichloro-1-methyl-indazol-4-yl)-1-[(1S,3R)-3-(hydroxymethyl)-5-(1-hydroxy-1-methyl-ethyl)-1-methyl-3,4-dihydro-1H-isoquinolin-2-yl]ethanone], the “dissolution profile over time” value in series [1] was “drops in gastric media to very low levels”. In addition, the solubility at 24 h in series [2] (aqueous buffer, Phosphate buffer (50 mM), pH 5.8, RT) was below 1 µg/mL; in series [2] (aqueous buffer, Phosphate buffer (50 mM), pH 6.5, RT), below 1 µg/mL; in series [2] (fassgf or other biorelevant, FasSGF, pH 1.6, 37° C.), below 1 µg/mL; in series [2] (FaSSIF-V2, pH 6.5, 37° C.), around 1.5 µg/mL (≈ 3.15 µM); in series [2] (FeSSIF-V2, pH 5.8, 37° C.) it was around 4 µg/mL (≈ 8.4 µM).
